# According to ChEMBL document CHEMBL2010691, “Discovery of loperamide as an antagonist of angiopoietin1 and angiopoietin2 by virtual screening” (Bioorg Med Chem Lett, 2012):
# Activity calls are given as the source filed them. The calls are words filed in the database; no cut-off is given here.
# Assays:
# [1] = target: T1, Angiopoietin-1 receptor (Homo sapiens, UniProt Q02763); test: Binding affinity to human recombinant Tie2 by SPR assay
# [2] = target: T1, Angiopoietin-1 receptor; test: Displacement of angiopoietin 1 from human recombinant Tie2 at 50 to 100 uM
# [3] = target: T1, Angiopoietin-1 receptor; test: Displacement of angiopoietin 1 from human recombinant Tie2 at 25 to 100 uM
# [4] = target: T1, Angiopoietin-1 receptor; test: Displacement of angiopoietin 2 from human recombinant Tie2 at 25 to 100 uM
# T1 sequence (Q02763 whole entry): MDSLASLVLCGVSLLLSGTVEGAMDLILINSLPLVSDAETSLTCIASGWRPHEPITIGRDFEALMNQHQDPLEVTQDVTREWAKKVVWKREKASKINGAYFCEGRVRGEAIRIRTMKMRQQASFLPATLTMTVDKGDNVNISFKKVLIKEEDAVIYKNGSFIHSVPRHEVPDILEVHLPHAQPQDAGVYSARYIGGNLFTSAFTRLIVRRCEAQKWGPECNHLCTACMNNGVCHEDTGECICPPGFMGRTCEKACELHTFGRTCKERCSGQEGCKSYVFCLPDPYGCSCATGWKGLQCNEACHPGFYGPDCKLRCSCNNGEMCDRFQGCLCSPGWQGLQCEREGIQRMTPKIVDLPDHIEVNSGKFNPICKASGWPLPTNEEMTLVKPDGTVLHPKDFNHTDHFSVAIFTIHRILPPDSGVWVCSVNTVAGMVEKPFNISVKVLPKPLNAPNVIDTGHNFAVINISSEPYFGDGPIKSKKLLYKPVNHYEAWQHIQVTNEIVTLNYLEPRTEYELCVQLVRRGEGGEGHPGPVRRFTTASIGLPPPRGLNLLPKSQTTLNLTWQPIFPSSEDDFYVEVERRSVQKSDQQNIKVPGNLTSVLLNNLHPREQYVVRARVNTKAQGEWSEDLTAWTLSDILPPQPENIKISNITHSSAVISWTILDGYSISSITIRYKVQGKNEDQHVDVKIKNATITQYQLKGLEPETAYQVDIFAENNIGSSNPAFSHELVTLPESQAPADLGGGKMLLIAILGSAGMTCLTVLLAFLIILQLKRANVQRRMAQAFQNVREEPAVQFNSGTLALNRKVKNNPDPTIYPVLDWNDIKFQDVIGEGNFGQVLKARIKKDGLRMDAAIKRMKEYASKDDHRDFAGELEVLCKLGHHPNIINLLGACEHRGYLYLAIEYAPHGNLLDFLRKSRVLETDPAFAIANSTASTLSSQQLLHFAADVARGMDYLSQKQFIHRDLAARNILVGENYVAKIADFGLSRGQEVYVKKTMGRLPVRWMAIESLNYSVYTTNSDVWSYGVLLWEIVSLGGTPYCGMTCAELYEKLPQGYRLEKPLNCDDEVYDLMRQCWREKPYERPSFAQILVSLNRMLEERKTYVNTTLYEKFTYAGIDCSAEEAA
Structure (SMILES),Kd [1] [µM],Activity [2],Activity [3],Activity [4]
O=C(N[C@H](Cc1ccccc1F)C(=O)O)OCC1c2ccccc2-c2ccccc21,120,Active,–,–
CC1(C)S[C@@H]2[C@H](NC(=O)[C@H](N)c3ccccc3)C(=O)N2[C@H]1C(=O)O [AMPICILLIN],82,Active,–,–
O=C(O)COCCN1CCN(C(c2ccccc2)c2ccc(Cl)cc2)CC1 (centres undefined) [CETIRIZINE],90,Active,–,–
CN(C)C(=O)C(CCN1CCC(O)(c2ccc(Cl)cc2)CC1)(c1ccccc1)c1ccccc1 [LOPERAMIDE],5.9,–,Active,Active
